Data taken from ChEMBL document CHEMBL5137040, “Identification of non-ATP-competitive α-carboline inhibitors of the anaplastic lymphoma kinase” (Eur J Med Chem, 2022).
Activity calls are given as the source filed them. The calls are words filed in the database; no cut-off is given here.

Key:
[1] = tested on: BaF3; assay: cells; conditions: Mus musculus, BaF3, 72 h
[2] = tested on: BaF3; assay: cells; conditions: Mus musculus, BaF3, 72 h; remark: listed apart in the source
[3] = tested on: BaF3; assay: cells; conditions: Mus musculus, BaF3, 72 h; remark: listed apart in the source
[4] = tested on: KARPAS-299; assay: Antiproliferative activity against NPM-ALK positive human KARPAS-299 cells assessed as inhibition of cell growth incubated for 72 hrs by MTS assay; format: functional, cell-based; conditions: KARPAS-299, 72 h
[5] = tested on: BaF3; assay: Cytotoxicity against mouse BaF3 cells harboring crizotinib resistant NPM/ALK I1171N mutant assessed as inhibition of cell proliferation incubated for 72 hrs by MTS assay; format: functional, cell-based; conditions: BaF3, 72 h
[6] = tested on: HL-60; assay: Antiproliferative activity against NPM-ALK negative human HL-60 cells assessed as inhibition of cell growth incubated for 72 hrs by MTS assay; format: functional, cell-based; conditions: HL-60, 72 h
[7] = tested on: BaF3; assay: Cytotoxicity against mouse BaF3 cells harboring crizotinib resistant NPM/ALK C1156Y mutant assessed as inhibition of cell proliferation incubated for 72 hrs by MTS assay; format: functional, cell-based; conditions: BaF3, 72 h
[8] = Half-life in po dosed nude mouse; format: ADME, organism-based; conditions: in vivo
[9] = Tmax in po dosed nude mouse; format: ADME, organism-based; conditions: in vivo
[10] = tested on: KARPAS-299; assay: Antiproliferative activity against human KARPAS-299 cells harboring crizotinib resistant ALK L1196Q mutant assessed as inhibition of cell growth at 0.1 to 10 uM incubated for 72 hrs by MTS assay; format: functional, cell-based; conditions: dose 0.1-10 µM
[11] = target: Insulin-like growth factor 1 receptor (Homo sapiens) (UniProt P08069); assay: Inhibition of recombinant IGF1R (unknown origin) at 10 uM by kinase selectivity assay relative to control
Insulin-like growth factor 1 receptor (Homo sapiens), sequence (P08069 31-736 limits assumed): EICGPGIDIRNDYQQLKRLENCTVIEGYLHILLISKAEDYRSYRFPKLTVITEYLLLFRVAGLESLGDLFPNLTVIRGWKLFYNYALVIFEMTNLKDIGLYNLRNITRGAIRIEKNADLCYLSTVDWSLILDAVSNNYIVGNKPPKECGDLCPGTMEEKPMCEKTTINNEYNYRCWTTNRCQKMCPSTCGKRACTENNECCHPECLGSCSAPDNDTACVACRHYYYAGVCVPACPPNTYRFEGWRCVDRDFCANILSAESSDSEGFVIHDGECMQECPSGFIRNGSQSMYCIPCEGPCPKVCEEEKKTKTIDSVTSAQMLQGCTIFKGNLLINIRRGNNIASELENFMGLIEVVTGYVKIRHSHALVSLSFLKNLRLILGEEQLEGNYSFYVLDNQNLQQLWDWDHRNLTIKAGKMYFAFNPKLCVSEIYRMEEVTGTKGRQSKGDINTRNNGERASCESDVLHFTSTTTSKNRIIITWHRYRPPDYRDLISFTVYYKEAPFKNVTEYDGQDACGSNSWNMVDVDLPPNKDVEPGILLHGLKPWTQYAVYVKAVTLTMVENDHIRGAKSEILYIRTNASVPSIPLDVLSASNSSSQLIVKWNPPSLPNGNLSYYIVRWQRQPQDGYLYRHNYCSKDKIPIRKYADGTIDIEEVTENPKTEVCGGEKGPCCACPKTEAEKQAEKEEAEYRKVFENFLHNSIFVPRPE
Insulin-like growth factor 1 receptor (Homo sapiens), sequence (P08069 741-1367 limits assumed): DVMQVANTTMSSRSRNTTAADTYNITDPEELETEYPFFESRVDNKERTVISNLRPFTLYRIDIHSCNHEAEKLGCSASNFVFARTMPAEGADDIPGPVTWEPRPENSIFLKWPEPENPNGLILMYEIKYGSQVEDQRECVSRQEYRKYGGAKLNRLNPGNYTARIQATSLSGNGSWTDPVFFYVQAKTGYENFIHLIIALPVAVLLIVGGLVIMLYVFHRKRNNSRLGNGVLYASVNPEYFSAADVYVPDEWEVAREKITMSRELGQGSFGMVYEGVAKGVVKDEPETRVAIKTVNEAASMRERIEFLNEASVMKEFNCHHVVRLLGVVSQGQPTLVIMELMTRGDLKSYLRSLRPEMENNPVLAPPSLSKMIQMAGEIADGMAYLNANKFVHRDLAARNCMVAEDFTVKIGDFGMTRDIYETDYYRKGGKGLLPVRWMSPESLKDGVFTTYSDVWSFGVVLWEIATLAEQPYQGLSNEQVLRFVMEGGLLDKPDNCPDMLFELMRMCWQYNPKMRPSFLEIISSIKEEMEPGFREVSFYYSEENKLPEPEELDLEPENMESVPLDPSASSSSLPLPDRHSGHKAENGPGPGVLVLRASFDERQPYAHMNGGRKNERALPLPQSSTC

[12] = tested on: SU-DHL-1; assay: Antiproliferative activity against NPM-ALK positive human SU-DHL-1 cells assessed as inhibition of cell growth incubated for 72 hrs by MTS assay; format: functional, cell-based; conditions: SU-DHL-1, 72 h
[13] = target: Vascular endothelial growth factor receptor 2 (Homo sapiens) (UniProt P35968); assay: Inhibition of recombinant VEGFR2 (unknown origin) at 10 uM by kinase selectivity assay relative to control
[14] = tested on: SUPM2; format: functional, cell-based; conditions: Homo sapiens, dose 0.1-10 µM, time 72.0 hrs
[15] = Antiproliferative activity against NPM-ALK positive human SUPM2 cells assessed as inhibition of cell growth incubated for 72 hrs by MTS assay; format: functional, cell-based; conditions: SUP-M2, 72 h
[16] = tested on: BaF3; assay: Cytotoxicity against mouse BaF3 cells harboring crizotinib resistant NPM/ALK F1174L mutant assessed as inhibition of cell proliferation incubated for 72 hrs by MTS assay; format: functional, cell-based; conditions: BaF3, 72 h
[17] = tested on: KARPAS-299; assay: Antitumor activity against crizotinib-resistant human KARPAS-299 cells harboring L1196Q mutant xenografted in nude mouse assessed as tumor growth inhibition at 100 mg/kg, po administered twice daily for 24 days; format: functional, organism-based; conditions: time 24.0 day
[18] = tested on: KARPAS-299; assay: Antitumor activity against human KARPAS-299 cells xenografted in nude mouse assessed as tumor growth inhibition at 100 mg/kg, po administered twice daily for 24 days; format: functional; set-up: scale not given: the % may be the effect or the level left; conditions: time 24 day
[19] = tested on: SUPM2; assay: Antiproliferative activity against human SUPM2 cells harboring crizotinib resistant ALK S1206C mutant assessed as inhibition of cell growth at 0.1 to 10 uM incubated for 72 hrs by MTS assay; format: functional, cell-based; conditions: dose 0.1-10 µM
[20] = target: Fibroblast growth factor receptor 1 (Homo sapiens) (UniProt P11362); assay: Inhibition of recombinant FGFR1 (unknown origin) at 10 uM by kinase selectivity assay relative to control
Fibroblast growth factor receptor 1 (Homo sapiens), sequence (P11362 22-822 limits assumed): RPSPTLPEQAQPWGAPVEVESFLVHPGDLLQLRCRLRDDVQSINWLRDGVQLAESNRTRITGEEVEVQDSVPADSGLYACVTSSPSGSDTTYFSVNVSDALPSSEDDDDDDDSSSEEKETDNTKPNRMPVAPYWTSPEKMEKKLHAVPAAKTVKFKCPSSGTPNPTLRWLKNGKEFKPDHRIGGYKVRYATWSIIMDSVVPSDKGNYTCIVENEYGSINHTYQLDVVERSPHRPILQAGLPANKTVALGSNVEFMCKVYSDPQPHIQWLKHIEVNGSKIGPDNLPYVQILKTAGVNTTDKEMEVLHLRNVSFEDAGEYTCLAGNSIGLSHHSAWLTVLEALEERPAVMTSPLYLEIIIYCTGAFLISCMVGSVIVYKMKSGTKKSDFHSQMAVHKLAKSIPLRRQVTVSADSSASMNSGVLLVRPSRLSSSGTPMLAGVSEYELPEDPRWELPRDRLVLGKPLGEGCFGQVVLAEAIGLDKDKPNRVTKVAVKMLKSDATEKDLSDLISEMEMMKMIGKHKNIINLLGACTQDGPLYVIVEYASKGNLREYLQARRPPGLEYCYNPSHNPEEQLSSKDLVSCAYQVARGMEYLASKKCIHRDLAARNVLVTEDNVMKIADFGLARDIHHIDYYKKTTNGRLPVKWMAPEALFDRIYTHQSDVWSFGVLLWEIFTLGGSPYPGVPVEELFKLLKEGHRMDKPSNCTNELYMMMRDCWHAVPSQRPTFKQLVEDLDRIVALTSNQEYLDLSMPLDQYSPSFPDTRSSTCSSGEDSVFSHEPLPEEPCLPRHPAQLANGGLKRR

[21] = target: Epidermal growth factor receptor (Homo sapiens) (UniProt P00533); assay: Inhibition of recombinant EGFR (unknown origin) at 10 uM by kinase selectivity assay relative to control
Epidermal growth factor receptor (Homo sapiens), sequence (P00533 whole entry): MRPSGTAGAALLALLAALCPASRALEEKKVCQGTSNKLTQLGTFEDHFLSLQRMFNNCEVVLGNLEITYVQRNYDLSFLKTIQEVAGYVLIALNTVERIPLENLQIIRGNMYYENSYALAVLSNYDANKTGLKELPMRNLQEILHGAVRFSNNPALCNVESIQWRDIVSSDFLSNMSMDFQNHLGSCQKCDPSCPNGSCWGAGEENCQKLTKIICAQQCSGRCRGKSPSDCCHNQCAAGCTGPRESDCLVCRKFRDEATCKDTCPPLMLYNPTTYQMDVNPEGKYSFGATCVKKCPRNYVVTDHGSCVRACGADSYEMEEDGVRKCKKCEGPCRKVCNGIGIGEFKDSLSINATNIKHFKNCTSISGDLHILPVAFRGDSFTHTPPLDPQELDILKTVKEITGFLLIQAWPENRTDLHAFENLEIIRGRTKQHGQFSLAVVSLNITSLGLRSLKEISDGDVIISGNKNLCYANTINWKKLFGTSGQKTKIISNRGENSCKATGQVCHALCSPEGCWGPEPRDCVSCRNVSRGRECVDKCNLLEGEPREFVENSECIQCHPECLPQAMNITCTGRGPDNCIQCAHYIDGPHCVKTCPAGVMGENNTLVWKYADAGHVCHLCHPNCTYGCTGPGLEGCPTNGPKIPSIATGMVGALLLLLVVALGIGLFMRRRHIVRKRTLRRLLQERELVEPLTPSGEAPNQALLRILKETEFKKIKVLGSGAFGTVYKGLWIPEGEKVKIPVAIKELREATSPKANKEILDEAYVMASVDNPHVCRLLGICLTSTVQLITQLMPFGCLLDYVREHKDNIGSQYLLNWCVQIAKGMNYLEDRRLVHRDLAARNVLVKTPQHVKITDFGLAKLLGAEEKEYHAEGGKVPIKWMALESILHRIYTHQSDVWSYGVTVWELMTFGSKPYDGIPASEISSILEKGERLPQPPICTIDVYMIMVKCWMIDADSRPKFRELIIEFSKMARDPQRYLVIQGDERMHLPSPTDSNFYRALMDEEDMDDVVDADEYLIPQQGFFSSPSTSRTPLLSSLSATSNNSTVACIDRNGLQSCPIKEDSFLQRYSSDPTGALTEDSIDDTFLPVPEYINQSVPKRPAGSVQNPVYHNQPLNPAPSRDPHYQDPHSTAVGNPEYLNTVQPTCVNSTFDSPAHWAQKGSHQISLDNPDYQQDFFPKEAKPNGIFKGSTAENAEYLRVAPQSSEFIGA

[22] = tested on: SUPM2; assay: Antiproliferative activity against human SUPM2 cells harboring crizotinib resistant ALK […] mutant assessed as inhibition of cell growth at 0.1 to 10 uM incubated for 72 hrs by MTS assay; format: functional, cell-based; conditions: dose 0.1-10 µM
[23] = target: ALK tyrosine kinase receptor (Homo sapiens, UniProt Q9UM73); format: cell-based, Sf9
ALK tyrosine kinase receptor, sequence (Q9UM73 whole entry): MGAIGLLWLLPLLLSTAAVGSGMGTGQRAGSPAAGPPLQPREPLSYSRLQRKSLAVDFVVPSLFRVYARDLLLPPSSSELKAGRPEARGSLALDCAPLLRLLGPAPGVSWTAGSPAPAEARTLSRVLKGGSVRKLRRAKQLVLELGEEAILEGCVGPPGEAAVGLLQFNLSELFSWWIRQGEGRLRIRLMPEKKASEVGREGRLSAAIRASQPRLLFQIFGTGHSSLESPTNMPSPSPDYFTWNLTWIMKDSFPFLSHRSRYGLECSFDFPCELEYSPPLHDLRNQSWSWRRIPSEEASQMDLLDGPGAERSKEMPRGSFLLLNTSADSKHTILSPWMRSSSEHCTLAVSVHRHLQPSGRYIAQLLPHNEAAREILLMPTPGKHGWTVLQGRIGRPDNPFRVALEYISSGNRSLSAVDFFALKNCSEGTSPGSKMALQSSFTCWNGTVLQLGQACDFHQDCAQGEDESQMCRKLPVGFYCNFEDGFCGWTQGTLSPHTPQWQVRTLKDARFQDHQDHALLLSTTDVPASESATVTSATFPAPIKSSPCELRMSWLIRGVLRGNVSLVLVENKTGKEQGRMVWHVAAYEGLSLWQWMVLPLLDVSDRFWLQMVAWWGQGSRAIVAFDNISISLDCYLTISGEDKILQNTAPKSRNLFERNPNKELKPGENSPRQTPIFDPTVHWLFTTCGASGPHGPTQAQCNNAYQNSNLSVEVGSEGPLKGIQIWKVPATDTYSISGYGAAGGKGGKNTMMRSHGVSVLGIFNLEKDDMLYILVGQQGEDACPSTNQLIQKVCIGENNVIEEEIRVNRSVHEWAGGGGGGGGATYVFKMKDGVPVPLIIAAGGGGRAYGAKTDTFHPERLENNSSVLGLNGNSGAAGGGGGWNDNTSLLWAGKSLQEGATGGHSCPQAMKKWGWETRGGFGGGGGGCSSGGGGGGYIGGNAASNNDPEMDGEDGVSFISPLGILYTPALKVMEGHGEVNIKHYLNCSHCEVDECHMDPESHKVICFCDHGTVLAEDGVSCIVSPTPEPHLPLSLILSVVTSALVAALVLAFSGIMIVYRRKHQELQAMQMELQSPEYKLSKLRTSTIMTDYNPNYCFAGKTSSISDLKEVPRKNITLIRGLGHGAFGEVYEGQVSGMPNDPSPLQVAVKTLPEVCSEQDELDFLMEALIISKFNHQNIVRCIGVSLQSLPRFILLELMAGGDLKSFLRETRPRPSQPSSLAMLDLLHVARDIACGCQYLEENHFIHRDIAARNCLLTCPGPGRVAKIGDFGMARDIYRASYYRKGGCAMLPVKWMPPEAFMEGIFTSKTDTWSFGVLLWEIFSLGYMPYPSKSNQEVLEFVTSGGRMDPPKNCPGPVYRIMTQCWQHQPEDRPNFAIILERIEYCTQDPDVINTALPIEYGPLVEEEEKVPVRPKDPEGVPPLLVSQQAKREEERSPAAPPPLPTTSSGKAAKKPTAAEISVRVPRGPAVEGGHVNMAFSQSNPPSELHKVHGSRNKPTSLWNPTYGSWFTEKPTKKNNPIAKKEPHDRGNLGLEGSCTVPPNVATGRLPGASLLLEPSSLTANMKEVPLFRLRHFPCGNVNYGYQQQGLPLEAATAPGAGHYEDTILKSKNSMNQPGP

SMILES	IC50 [1]	IC50 [2]	IC50 [3]	IC50 [23]	further results
C[N+]1(C)CCN(c2ccc(-c3ccc4[nH]c5nccc(C#Cc6ccccc6C(F)(F)F)c5c4c3)cc2)CC1	2100 nM	2600 nM	13000 nM		
Cc1cc(OCc2ccc(-c3ccnc4[nH]c5ccc(-c6ccc(N7CCN(C)CC7)cc6)cc5c34)cc2)ccc1Cl	> 25000 nM	> 25000 nM	> 25000 nM		
CN1CCN(c2ccc(-c3ccc4[nH]c5nccc(/C=C/c6ccccc6)c5c4c3)cc2)CC1	1500 nM	1600 nM	1100 nM		
CN1CCN(c2ccc(-c3ccc4[nH]c5nccc(-c6ccc(Cc7ccccc7)cc6)c5c4c3)cc2)CC1			8700 nM		IC50 [4]: 700 nM; IC50 [5]: 1900 nM; IC50 [6]: 17000 nM; IC50 [7]: 1300 nM; half-life [8]: < 24 h; Tmax [9]: 4 h; Activity [10]: Active; inhibition [11]: > 90%; IC50 [12]: 800 nM; inhibition [13]: > 90%; Activity [14]: Active; IC50 [15]: 1100 nM; IC50 [16]: 2400 nM; Activity [17]: Active; Activity [18]: 80%; Activity [19]: Active; inhibition [20]: > 90%; inhibition [21]: > 90%; Activity [22]: Active
CN1CCN(c2ccc(-c3ccc4[nH]c5nccc(/C=C/c6ccccc6C(F)(F)F)c5c4c3)cc2)CC1	900 nM	1500 nM	1700 nM		
CN1CCN(c2ccc(-c3ccc4[nH]c5nccc(N6CCC(Cc7ccccc7)CC6)c5c4c3)cc2)CC1	600 nM	1200 nM	3300 nM		
COc1ccc(/C=C/c2ccnc3[nH]c4ccc(-c5ccc(N6CCN(C)CC6)cc5)cc4c23)cc1	1600 nM	600 nM	4100 nM		
COc1cc(C(O)c2ccccc2)c(O)cc1-c1ccnc2[nH]c3ccc(-c4ccc(N5CCN(C)CC5)cc4)cc3c12 (stereo not given)				> 10000 nM	
CN1CCN(c2ccc(-c3ccc4[nH]c5nccc(/C=C/c6ccccc6F)c5c4c3)cc2)CC1	1600 nM	1900 nM	5100 nM		
CN1CCN(c2ccc(-c3ccc4[nH]c5nccc(C#Cc6ccccc6)c5c4c3)cc2)CC1	2700 nM	3700 nM	4400 nM		
CN(C)/C=C/C(=O)c1ccc2[nH]c3nccc(-c4ccc(Cc5ccccc5)cc4)c3c2c1				> 10000 nM	
COc1ccc(-c2ccnc3[nH]c4ccccc4c23)cc1				> 10000 nM	
COC(=O)c1cc(-c2ccnc3[nH]c4ccc(-c5ccc(N6CCN(C)CC6)cc5)cc4c23)ccc1Cc1ccccc1				> 10000 nM	
CN1CCN(c2ccc(-c3ccc4[nH]c5nccc(-c6ccc(-c7cccc8ccccc78)cc6)c5c4c3)cc2)CC1	500 nM	400 nM	1000 nM		
COc1cc(-c2ccnc3[nH]c4ccc(-c5ccc(N6CCN(C)CC6)cc5)cc4c23)c(OC)cc1Cc1ccccc1	500 nM	800 nM	800 nM		
CCN(CC)CCSCC(=O)c1ccc2[nH]c3nccc(Cl)c3c2c1				> 10000 nM	
CN1CCN(c2ccc(-c3ccc4[nH]c5nccc(-c6ccc(-c7ccccc7)cc6)c5c4c3)cc2)CC1	2800 nM	4300 nM	> 25000 nM		
CN1CCN(c2ccc(-c3ccc4[nH]c5nccc(-c6cccc(-c7ccccc7)c6)c5c4c3)cc2)CC1	1900 nM	1800 nM	2700 nM		
C#Cc1ccnc2[nH]c3ccc(-c4ccc(N5CCN(C)CC5)cc4)cc3c12				> 10000 nM	
CN1CCN(c2ccc(-c3ccc4[nH]c5nccc(/C=C/c6cccc(F)c6)c5c4c3)cc2)CC1	1800 nM	2700 nM	9500 nM		
O=[N+]([O-])c1ccccc1Nc1ccnc2[nH]c3ccccc3c12				> 10000 nM	
CN1CCN(c2ccc(-c3ccc4[nH]c5nccc(-c6ccc(C(=O)c7ccccc7)cc6)c5c4c3)cc2)CC1	1700 nM	6100 nM	18000 nM		
c1ccc(Cc2ccc(-c3ccnc4[nH]c5ccc(-c6ccc(N7CCN(Cc8cccnc8)CC7)cc6)cc5c34)cc2)cc1				> 10000 nM	
